Assay [1] deals with 10-week-old ovariectomized (OVX) mice. Description: Ovariectomized (OVX) mouse model. The class given is in vivo. The following applies: for maximum stress: femur three-point bending; for maximum stress / cortical bone thickness: single IV injection of conjugate or four weeks of PTH. The source says: FIG. 21 depicts histomorphometric analyses of the 5th lumbar vertebral bodies after LLP2A-Ale treatment of 10-week-old ovariectomized (OVX) mice, showing increases in osteoblast numbers, activities and bone formation rate/bone surface (BFR/BS) post-treatment. Analyses included trabecular bone area (%), osteoblast surface (Ob/BS), mineralizing surface (MS/BS) activities and BFR/BS (P<0.05).
Representative fluorescent images from the trabecular bone at the 5th LVB (Top panel: white arrowheads illustrate osteoblasts; Bottom panel: yellow arrows illustrate double labeled trabecular bone surfaces).
FIG. 23 depicts histomorphometry analyses of the right mid-femurs included bone formation at the endosteal (Ec) or periosteal (Ps.) bone surfaces, and cortical bone thickness of 10-week-old ovariectomized (OVX) mice. […] Three-point bending was performed on left femurs to obtain maximum stress of the femurs.
Short yellow arrows illustrated double labeled endocortical bone surfaces. (a, p<0.05 versus Sham; b, P<0.05 vs. OVX+PBS, c, P<0.05 vs. OVX+LLP2A; d, P<0.05 vs. OVX+Ale. Data are represented as Mean±SD).

The next assay has as its system C57BL/6 mice. Description: Guiding GFP-labeled mouse MSCs to bone. The class given is in vivo. As to conditions: for osteocalcin levels: 0.9 nmol/mouse I.P. one hour after GFP-MSC I.V. As for the experimental part: LLP2A-Ale or LLP2A-Ale (1) were dissolved in 0.9% normal saline and injected I.P. to the mice one hour after MSC at a final solution of 0.9 nmol/mouse. Mice were sacrificed either at 3 days or 3 weeks. Osteocalcin, a bone formation marker, was measured at both 3 days and 3 weeks post-treatments. The lumbar vertebral bodies from the 3-day treatment groups were frozen and sectioned with cryostat. The sections were then stained with anti-GFP antibody. The transplanted MSCs were stained in brown.

A further assay concerns NOD/SCID/MPSVII mice. As to the kind of experiment: huMSC transplantation with LLP2A-Ale in immunodeficient mice. The class given is in vivo, mouse. As to conditions: vertebral body, three weeks after single injection of huMSC with or without compound. From the text: Human MSCs (huMSCs) were obtained and injected together with LLP2A-Ale to immunodeficient mice, NOD/SCID/mucopolysaccharidosis type VII (MPSVII). This mouse strain lacked the β-glucuronidase (GUSB) enzyme. The donor cells could be easily detected using biochemical detection of β-glucuronidase (See Meyerrose, T. E., et al., Stem Cells, 2007. 25(1): p. 220-7; Meyerrose, T. E., et al., Stem Cells, 2008. 26(7): p. 1713-22). At three-month of age, the mice received a single intravenous (i.v.) injection of either vehicle (100 μl PBS/mouse), huMSCs (5×10^5/100 μl/PBS/mouse), huMSCs+LLP2A (5 nM/mouse) or huMSCs+LLP2A-Ale (500 ng/mouse; total compound weight 3.5 μg, with alendronate concentration of 500 ng/mouse). The alendronate dose we used for the study was approximately one-fifth of the therapeutic dose for the treatment of osteoporosis (See Colon-Emeric, C. S., JAMA, 2006, 296(24): p. 2968-9; Ma, Y. L., et al., Endocrinology, 2003. 144(5): p. 2008-15). […] HuMSC, as shown by GUSB+red stain, were only present at the trabecular bone surface in the LLP2A-Ale-treated group (lower panel). There was no demonstrable GUSB activity in the lung, liver, kidney and LVB that received PBS (top panels) or huMSCs (middle panel). Cancellous bone mass in the vertebral body was—more than 40% higher in the group treated with MSC+LLP2A-Ale (cancellous bone volume, BV/TV 13.9±2.2%) compared to PBS (BV/TV 9.4±1.7%), MSC (BV/TV 10.2±1.9%) or MSC+LLP2A (BV/TV 10.5±0.5%) controls three weeks after a single injection of huMSC and LLP2A-Ale.
In FIG. 8, Three-month-old MSPVII mice received a single intravenous injection of either of PBS, huMSC (5×10^5) or huMSC+LLP2A or LLP2A-Ale. The mice were sacrificed 24 hours later. Following sacrifice, small portions of organ including lumbar vertebral bodies (LVB) were harvested and frozen in Optimal Cutting Temperature embedding media. The sections were stained using naphthol-AS-BI-β-Dglucuronide (GUSB) as a substrate. Representative sections from lung, liver, kidney and lumbar vertebral (LVB) trabecular bone regions were presented. […] Isolated GUSB-positive cells were also observed within bone marrow of the LVB in […] group.
The NOD-SCID MPSVII strain was the result of extensive backcrossing of the mutant GUSB allele from the B6.C-H-2^bm1/ByBirgus^mps/+ mouse onto the NOD/LtSz-scid background. Animals were bred and maintained at the Stem Cell Department of the UC Davis Medical Center under approved animal care protocols. Affected animals were generated by breeding mice heterozygous for the MPSVII mutation. Homozygous GUSB-deficient pups were identified at birth by biochemical analysis of toe tissue.
Serum levels of the amino terminal propeptide of type 1 procollagen (P1NP), osteocalcin and C-terminal telopeptides of type I collagen (CTX-I) were measured using mouse sandwich ELISA kits from Biomedical Technologies (Stroughton, Mass.) or Immunodiagnostic System (Fountain Hills, Ariz.). The manufacturer's protocols were followed and all samples were assayed in duplicate. A standard curve was generated from each kit and the absolute concentrations were extrapolated from the standard curve. The coefficients of variations (CVs) for inter-assay and intra-assay measurements were less than 10% for all assays and are similar to the manufacturer's references (Yao, W., et al., Arthritis Rheum, 2008, 58(6): p. 1674-86; Yao, W., et al., Arthritis Rheum, 2008, 58(11): p. 3485-3497).
After fixation in 4% paraformaldehyde, the right distal femurs, mid-femurs and the 5th lumbar vertebral bodies were dehydrated in graded concentrations of ethanol and xylene and embedded un-decalcified in methyl methacrylate. The frontal sections (8 μm thick) were cut using a vertical bed microtome (Leica/Jung 2265) and affixed to slides coated with a 2% gelatin solution. Unstained 8-μm-thick sections were used for assessing fluorochrome labeling and dynamic changes in bone. […]

Assay [2] has as its system bone marrow cells undergoing osteogenic differentiation. Description: Rainbow bead cell-binding assay. The class given is cell-based, mouse. The following applies: cells cultured in osteogenic medium for 7 days, incubated with rainbow beads. As for the experimental part: Mouse MSCs were purchased from Invitrogen (Cat#S1502-100), cultured in osteogenic medium for 7 days and incubated with rainbow beads for one hour. […] Original magnification 10× on the right and 20× on the left of the top panel.
A new color-encoding method that facilitates high-throughput screening of OBOC combinatorial libraries was developed. This method differs from the traditional methods used to monitor integrin expressions in the MSCs, i.e., the use of antibody-based fluorescence-activated cell sorting (FACS) or immunoblotting. In the present method, polymer beads displaying chemical compounds or families of compounds were stained with oil-based organic dyes that are used as coding tags. […] These rainbow beads were prepared in a multiplex manner such that each ligand reacted to one or a series of integrins that were coded one color, See FIG. 7 (Luo, J., et al., J Comb Chem, 2008, 10(4): p. 599-604). This rainbow bead technique was then applied to determine the integrin profile on the cell surfaces.
In FIG. 7, bone marrow cells were cultured in osteogenic medium for 7 days and incubated with rainbow beads. The purple beads that coded with LLP2A, the ligand with high affinity and specificity against α4β1, were covered with layers of cells identified by green arrows. […]

The target of a further assay is integrin α4β1 (Homo sapiens, UniProt P05556+P13612). As to conditions: cited from earlier work.
The test system of another assay is 129SvJ mice. The class given is in vivo, mouse.

integrin α4β1, sequence (P13612 34-1032): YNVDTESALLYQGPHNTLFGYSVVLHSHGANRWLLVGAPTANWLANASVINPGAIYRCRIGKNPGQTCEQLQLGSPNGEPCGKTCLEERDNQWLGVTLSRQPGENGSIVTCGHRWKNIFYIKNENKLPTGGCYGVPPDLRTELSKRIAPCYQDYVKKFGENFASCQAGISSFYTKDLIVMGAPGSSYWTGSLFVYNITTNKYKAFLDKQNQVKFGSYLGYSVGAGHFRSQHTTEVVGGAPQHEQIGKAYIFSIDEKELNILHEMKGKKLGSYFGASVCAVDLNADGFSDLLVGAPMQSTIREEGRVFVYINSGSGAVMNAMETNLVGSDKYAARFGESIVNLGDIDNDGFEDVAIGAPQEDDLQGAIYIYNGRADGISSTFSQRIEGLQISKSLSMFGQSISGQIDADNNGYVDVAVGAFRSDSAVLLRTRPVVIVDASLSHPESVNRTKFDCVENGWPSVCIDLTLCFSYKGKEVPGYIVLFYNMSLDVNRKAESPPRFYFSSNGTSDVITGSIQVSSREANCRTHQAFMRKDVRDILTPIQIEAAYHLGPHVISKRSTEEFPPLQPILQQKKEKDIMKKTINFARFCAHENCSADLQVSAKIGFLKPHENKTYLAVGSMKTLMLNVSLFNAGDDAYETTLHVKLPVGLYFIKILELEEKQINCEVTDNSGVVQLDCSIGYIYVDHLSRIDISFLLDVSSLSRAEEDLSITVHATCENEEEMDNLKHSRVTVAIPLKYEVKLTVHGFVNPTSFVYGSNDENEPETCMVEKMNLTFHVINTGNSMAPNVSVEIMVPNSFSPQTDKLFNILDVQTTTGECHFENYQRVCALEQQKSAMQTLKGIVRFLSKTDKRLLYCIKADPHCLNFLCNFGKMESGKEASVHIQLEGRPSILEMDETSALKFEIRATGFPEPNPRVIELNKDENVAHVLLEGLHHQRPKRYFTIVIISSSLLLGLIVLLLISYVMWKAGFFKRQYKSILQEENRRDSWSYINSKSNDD
integrin α4β1, sequence (P05556 21-798): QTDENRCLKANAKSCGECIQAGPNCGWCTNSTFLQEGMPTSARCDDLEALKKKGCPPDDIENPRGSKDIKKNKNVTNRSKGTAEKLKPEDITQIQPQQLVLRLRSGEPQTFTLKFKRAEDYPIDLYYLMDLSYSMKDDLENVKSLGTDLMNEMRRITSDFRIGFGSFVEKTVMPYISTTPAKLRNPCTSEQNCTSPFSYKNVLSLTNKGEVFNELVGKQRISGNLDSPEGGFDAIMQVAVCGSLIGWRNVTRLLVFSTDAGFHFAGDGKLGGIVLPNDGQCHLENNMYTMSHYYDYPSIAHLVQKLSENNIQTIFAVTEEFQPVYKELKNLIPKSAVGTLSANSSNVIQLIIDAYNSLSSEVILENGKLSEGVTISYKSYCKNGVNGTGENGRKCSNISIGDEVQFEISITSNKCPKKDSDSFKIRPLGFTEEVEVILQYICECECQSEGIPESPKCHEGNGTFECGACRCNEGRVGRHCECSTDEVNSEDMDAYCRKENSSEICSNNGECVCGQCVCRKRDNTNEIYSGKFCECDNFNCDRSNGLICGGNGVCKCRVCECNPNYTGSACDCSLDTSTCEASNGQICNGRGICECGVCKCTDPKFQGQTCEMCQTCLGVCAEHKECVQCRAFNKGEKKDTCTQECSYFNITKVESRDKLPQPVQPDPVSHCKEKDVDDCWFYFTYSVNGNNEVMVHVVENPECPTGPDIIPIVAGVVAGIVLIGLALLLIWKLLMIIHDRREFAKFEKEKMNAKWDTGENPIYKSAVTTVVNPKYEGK

Take `NCCCC(O)(P(=O)(O)O)P(=O)(O)O` [Ale, Alendronate, reference compound]: the maximum stress entry in assay [1] is on record as “not significantly altered”. Moreover, the cortical bone thickness result in assay [1] (mid-femur) is recorded as “not significantly altered”.
On to LLP2A-Alendronate (1) [LLP2A-Ale (1)], for which, in the assay on C57BL/6 mice (lumbar vertebral bodies, three days), the “location of transplanted MSCs (anti-GFP staining)” value was “observed within bone marrow and adjacent to the trabecular bone surfaces”. The osteocalcin levels result with C57BL/6 mice (three days) and with C57BL/6 mice (three weeks) was “significantly increased” each time.
Regarding “LLP2A: bisaryl urea peptidomimetic, highly potent and selective ligand for the activated form of α4β1 integrin [reference compound]”, the “cancellous bone volume, BV/TV” value in the assay on NOD/SCID/MPSVII mice was 10.5±0.5%. In addition, the “cell binding to ligand-coded rainbow beads (affinity)” value in assay [2] was “high affinity”. The IC50 with integrin α4β1 was 2 pM. Besides, in the assay on 129SvJ mice (four weeks after injections), the “bone formation rate at endocortical and periosteal surfaces of the mid-femurs” value is listed as “significantly increased”. The “proliferating cell populations (BrdU)” value in the assay with 129SvJ mice (two days after i.v. injection, lumbar vertebral sections) is listed as “increased the number of proliferating cell populations within the marrow cavity”. For the same molecule, the maximum stress result in assay [1] is listed as “not significantly altered”. The cortical bone thickness result in assay [1] (mid-femur) was “not significantly altered”.

B1: PTH: PTH, comparator treatment given for four weeks in OVX mice (peptide, UniProt P01270 32-115, looked up)
Parathyroid hormone: SVSEIQLMHNLGKHLNSMERVEWLRKKLQDVHNFVALGAPLAPRDAGSQRPRKKEDNVLVESHEKSLGEADKADVNVLTKAKSQ
modifications: Parathyroid hormone
Turning to B1, the maximum stress entry in assay [1] is listed as “not significantly altered”. In addition, the endocortical bone formation result in assay [1] (mid-femur, vs OVX) is given as “increases”. Moreover, the cortical bone thickness entry in assay [1] (mid-femur) was “not significantly altered”.

The values are drawn from patent publication US9119884B2, “LLP2A-bisphosphonate conjugates for osteoporosis treatment” (The Regents of the University of California, priority 2010, dated 2015).
